Reference: paper PMC8468439, “Oxazinethione Derivatives as a Precursor to Pyrazolone and Pyrimidine Derivatives: Synthesis, Biological Activities, Molecular Modeling, ADME, and Molecular Dynamics Studies” (Molecules, 2021)
In brackets after ≈: the same amount, converted by molar mass.

What was measured:
[1] = system: A. flavus; test: Antimicrobial screening, hole-plate and filter disc; type: cell-based, Aspergillus flavus; design: key to A (activity): (-) no activity; (+) mild activity with diameter zone of (0.5–0.7 cm); (++) moderate activity with diameter zone of (1.1–1.2 cm); (+++) marked with diameter zone of (1.6–1.8 cm); conditions: for A (activity): zone width of inhibition, compounds dissolved in 10% acetone
Experimental: (§1) All investigations were executed at the Biology department, Faculty of Science, Benha University, Egypt. The antimicrobial activities of all the synthesized molecules were determined in vitro, using the hole-plate and filter disc methodologies. The investigated compounds were dissolved in 10% acetone (v/v). The width of the inhibition zone indicated the potency of the antimicrobial activity: (-) no antimicrobial activity, (+) mild activity with the diameter of the zones equal to (0.5–0.7 cm), (++) moderate activity with the diameter of the zones equal to (1.1–1.2 cm), and (+++) marked activity with the diameter of the zones equal to (1.6–1.8 cm).

[2] = system: E. coli; test: as above; type: cell-based, Escherichia coli; design: key to A (activity): (-) no activity; (+) mild activity with diameter zone of (0.5–0.7 cm); (++) moderate activity with diameter zone of (1.1–1.2 cm); (+++) marked with diameter zone of (1.6–1.8 cm); conditions: for A (activity): zone width of inhibition, compounds dissolved in 10% acetone
Experimental: as §1

[3] = system: S. aureus; test: as above; type: cell-based, Staphylococcus aureus; design: key to A (activity): (-) no activity; (+) mild activity with diameter zone of (0.5–0.7 cm); (++) moderate activity with diameter zone of (1.1–1.2 cm); (+++) marked with diameter zone of (1.6–1.8 cm); conditions: for A (activity): zone width of inhibition, compounds dissolved in 10% acetone
Experimental: as §1

[4] = system: F. moniliform; test: as above; type: cell-based, Fusarium moniliform; conditions: for A (activity): zone width of inhibition, compounds dissolved in 10% acetone
Experimental: as §1

[5] = system: Hela for cervical cancer; test: SRB cytotoxicity assay; type: cell-based; conditions: Homo sapiens, 72 h, 3 days
Experimental: (§2) The cells were supplied by the Egyptian Holding Company for Biological Products and Vaccines (VACSERA) and then kept in the tissue culture unit. The growth of the cells was affected in RPMI-1640 medium, supplemented with 10% heat-inactivated FBS, 50 units/mL of penicillin, and […] of streptomycin, and maintained in a humidified atmosphere with 5% carbon dioxide. The cells were maintained as monolayer cultures by serial sub-culturing, with cell culture reagents obtained from Lonza (Basel, Switzerland). The antitumor activities of the complexes were assessed against three cell lines MCF-7 for breast cancer, Ovcar-3 for ovarian cancer, and Hela for cervical cancer. In addition, all the results obtained were compared and validated to the LCC-MK2 normal cell line. In the literature, the sulforhodamine B (SRB) assay method was applied to determine the cytotoxicity, as described in [39]. Exponentially growing cells were collected using 0.25% Trypsin-EDTA and seeded in 96-well plates at 1000–2000 cells/well in RBMI-1640-supplemented medium. The cells were kept in the medium for 24 h and then incubated for 3 days with various concentrations of the copper complexes. Following 3 days of treatment, the cells were fixed with 10% trichloroethanoic acid for 1 h at 4 °C. Wells were stained for 10 min at room temperature with 0.4% SRBC dissolved in 1% acetic acid. The plates were air-dried for 24 h, and the dye was dissolved in Tris-HCl for 5 min with shaking at 1600 rpm. An ELISA microplate reader (ChroMate-4300, FL, USA) was used to assess each well’s optical density (O.D.) at 564 nm. The IC50 values were calculated from a Boltzmann sigmoidal concentration-response curve using the nonlinear regression fitting models (Graph Pad, Prism Version 9).

[6] = system: LCC-MK2 normal cell line; test: SRB cytotoxicity assay; type: cell-based; conditions: 72 h, 3 days
Experimental: as §2

[7] = system: MCF-7 for breast cancer; test: SRB cytotoxicity assay; type: cell-based; conditions: Homo sapiens, MCF7, 72 h, 3 days
Experimental: as §2

[8] = system: Ovcar-3 for ovarian cancer; test: SRB cytotoxicity assay; type: cell-based; conditions: Homo sapiens, 72 h, 3 days
Experimental: as §2

SMILES	A (activity) [1]	A (activity) [2]	Mic (minimum inhibitory concentration) [3]	A (activity) [3]	Mic (minimum inhibitory concentration) [4]	A (activity) [4]	melting point [°C]	Mic (minimum inhibitory concentration) [2]	IC50 [5] [µg/mL]	IC50 [6] [µg/mL]	IC50 [7] [µg/mL]	IC50 [8] [µg/mL]	Mic (minimum inhibitory concentration) [1]
N#CC12C(=O)NC(=O)N=C1N=C(CN1C(=O)c3c(Br)c(Br)c(Br)c(Br)c3C1=O)OC2c1ccccc1 (stereo not shown) [Compound 2a]	-	-	125	+ ((+) mild activity with diameter zone of (0.5–0.7 cm))	125	+ ((+) mild activity with diameter zone of (0.5–0.7 cm))	98 to 100						
N#CC12C(=N)NC(=S)N=C1N=C(CN1C(=O)c3c(Br)c(Br)c(Br)c(Br)c3C1=O)OC2c1ccccc1 (stereo not shown) [Compound 4b]	-	+ ((+) mild activity with diameter zone of (0.5–0.7 cm))	250	++ ((++) moderate activity with diameter zone of (1.1–1.2 cm))	125	+ ((+) mild activity with diameter zone of (0.5–0.7 cm))		250	14.8 (≈ 19.5 µM)	170 (≈ 225 µM)	16.6 (≈ 21.8 µM)	11.2 (≈ 14.8 µM)	
N#CC12C(=N)NN=C1N=C(CN1C(=O)c3c(Br)c(Br)c(Br)c(Br)c3C1=O)OC2c1ccccc1 (stereo not shown) [Compound 3, 2-(tetrabromophalimidmethyl)-6-phenyl-5-yano-1,3-oxazino[4,5-d]-1,2-pyrazole2[H]-3-one]	+ ((+) mild activity with diameter zone of (0.5–0.7 cm))	+ ((+) mild activity with diameter zone of (0.5–0.7 cm))	125	+ ((+) mild activity with diameter zone of (0.5–0.7 cm))	125	+ ((+) mild activity with diameter zone of (0.5–0.7 cm))		125	9.14 (≈ 12.8 µM)	206 (≈ 289 µM)	15.5 (≈ 21.7 µM)	14.6 (≈ 20.4 µM)	125
N#CC12C(=N)NC(=O)N=C1N=C(CN1C(=O)c3c(Br)c(Br)c(Br)c(Br)c3C1=O)OC2c1ccccc1 (stereo not shown) [Compound 4a]	+++ ((+++) marked with diameter zone of (1.6–1.8 cm))	+ ((+) mild activity with diameter zone of (0.5–0.7 cm))		-	250	+ ((+) mild activity with diameter zone of (0.5–0.7 cm))		250	12.9 (≈ 17.4 µM)	68.9 (≈ 92.9 µM)	21.7 (≈ 29.2 µM)	15.9 (≈ 21.4 µM)	250
N#CC12C(=O)NC(=S)N=C1N=C(CN1C(=O)c3c(Br)c(Br)c(Br)c(Br)c3C1=O)OC2c1ccccc1 (stereo not shown) [Compound 2b]	-	+ ((+) mild activity with diameter zone of (0.5–0.7 cm))	250	++ ((++) moderate activity with diameter zone of (1.1–1.2 cm))	125	+ ((+) mild activity with diameter zone of (0.5–0.7 cm))		250	22.8 (≈ 30.1 µM)	89.3 (≈ 118 µM)	13.8 (≈ 18.2 µM)	15.2 (≈ 20.1 µM)	
N#CC12C(=O)NN=C1N=C(CN1C(=O)c3c(Br)c(Br)c(Br)c(Br)c3C1=O)OC2c1ccccc1 (stereo not shown) [Compound 5, 2-(tetrabromophalimidmethyl)-6-phenyl-5-yano-1,3-oxazino[4,5-d]-1,2-pyrazole2[H]-3-imide]	+++ ((+++) marked with diameter zone of (1.6–1.8 cm))	++ ((++) moderate activity with diameter zone of (1.1–1.2 cm))	250	++ ((++) moderate activity with diameter zone of (1.1–1.2 cm))	250	+ ((+) mild activity with diameter zone of (0.5–0.7 cm))		250	5.69 (≈ 7.96 µM)	191 (≈ 267 µM)	12.3 (≈ 17.2 µM)	10.1 (≈ 14.1 µM)	250
